Source: patent US11510886B2, “Metformin amino acid compounds and methods of using the same” (Laboratorios Silancs S.A. DE C.V., priority 2016, dated 2022)
Like-named read-outs stand apart in the source and are kept apart here.

Legend:
blood glucose level = assay: Effect of metformin compounds on the glucokinetic profile after oral glucose overload; type: in vivo, Rat; conditions: for blood glucose level vs vehicle, after the oral glucose overload: 750 mg/kg for five days, glucose 3 g/kg, isolated time points 0.25-4 hours; for Blood glucose level, 0.25 h post-glucose overload / Blood glucose level, 0.5 h post-glucose overload / Blood glucose level, 2 h post-glucose overload / Blood glucose level, 6 h post-glucose overload / Blood glucose level, pre-glucose overload / Blood glucose level, 1 h post-glucose overload / Blood glucose level, 4 h post-glucose overload / Blood glucose level, 3 h post-glucose overload: rat, 750 mg/kg referred to metformin base, mean ± SD; for Blood glucose level, 0.25 h post-glucose overload / Blood glucose level, pre-glucose overload / Blood glucose level, 1 h post-glucose overload / Blood glucose level, 4 h post-glucose overload: *p<0.05 vs vehicle; for Blood glucose level, 3 h post-glucose overload: *p<0.05, **p<0.01 vs vehicle
[1] = terms of European Pharmacopeia 7.0 section 5.11
[2] = rat, in vivo, po, 250 mg/kg
[3] = for Body weight (g) On administration day / Body weight (g) On distribution day / Body weight (g) On first administration day: Mean ± SD; for Body weight (g) On distribution day: before dosing
[4] = STZ-diabetic male rats, mean ± SD; for Absolute body weight, Day −3 (before STZ administration): baseline before STZ and before first TI/RI administration; for Absolute body weight, Day −1 / Absolute body weight, Day −2 (distribution of groups): before first TI/RI administration
[5] = system: rat model of streptozotocin-induced diabetes; assay: Blood glucose levels in rat model of streptozotocin-induced diabetes, 14 days oral; conditions: for Blood glucose levels before TI/RI administration, Day −3 (before STZ administration): rats, baseline before STZ and before first TI/RI administration; for Blood glucose levels before TI/RI administration, Day −3 (before STZ administration) / Blood glucose levels before TI/RI administration, Day −1: mean ± SD; for Blood glucose levels before TI/RI administration, Day −1: STZ-diabetic rats, before first TI/RI administration, n.d. = all values beyond ULOD of glucometer (600 mg/dl), § n=1, ¢ n=2
[6] = Groups L-U, 750 mg/kg, first column of this head
[7] = Groups L-U, 750 mg/kg, second column of this head

Row | Compound | Blood glucose level, 0.25 h post-glucose overload (blood glucose level) [mg/dL] | Blood glucose level, 0.5 h post-glucose overload (blood glucose level) [mg/dL] | Blood glucose level, 2 h post-glucose overload (blood glucose level) [mg/dL] | Blood glucose level, 6 h post-glucose overload (blood glucose level) [mg/dL] | AUC(0-24) [2] [µg·h/mL] | Cmax [2] [ng/mL] | Metformin base concentration in plasma, 0.5 h post-administration [2] [µg/mL] | Metformin base concentration in plasma, 1 h post-administration [2] [µg/mL] | Metformin base concentration in plasma, 2 h post-administration [2] [µg/mL] | Metformin base concentration in plasma, 4 h post-administration [2] [µg/mL] | Metformin base concentration in plasma, 8 h post-administration [2] [µg/mL] | Metformin base concentration in plasma, 24 h post-administration [2] [µg/mL] | Body weight (g) On administration day ([3]; Groups B-K, 250 mg/kg) [g] | Body weight (g) On distribution day ([3]; Groups B-K, 250 mg/kg) [g] | Body weight (g) On distribution day ([3]; Groups L-U, 750 mg/kg) [g] | Body weight (g) On first administration day [3, 6] [g] | Body weight (g) On first administration day [3, 7] [g] | Absolute body weight, Day −3 (before STZ administration) [4] [g] | Absolute body weight, Day −1 [4] [g] | Blood glucose levels before TI/RI administration, Day −3 (before STZ administration) [5] [mg/dL] | further results
1 | CN(C)C(=N)NC(=N)N.C[C@H](N)C(=O)O [Metformin alaninate, metformin alaninate] | 90.50 ± 13.72 | 94.75 ± 13.52 | 87.75 ± 9.00 | 84.00 ± 7.83 | 126.09 | 16400 | 14.77 ± 3.29 | 13.00 ± 1.39 | 14.97 ± 3.57 | 16.40 ± 5.23 | 3.56 ± 1.19 | 0.22 ± 0.08 | 202.49 ± 12.79 | 187.52 ± 10.28 | 186.18 ± 8.04 | 200.80 ± 10.15 | 195.43 ± 11.23 | 232.07 ± 6.17 | 208.00 ± 2.65 | 121.33 ± 6.51 | blood glucose level vs vehicle, after the oral glucose overload (blood glucose level; Dunn's test): statistically significant decreases; Blood glucose level, pre-glucose overload (blood glucose level): 82.25 ± 7.68 mg/dL; Physical form (hygroscopicity) ([1]; listed as 13. ALANINE): Hygroscopic solid; Physical form (hygroscopicity) ([1]; listed as alanine): hygroscopic; macroscopic necropsy findings ([3]; 750 mg/kg for five days): small additional lobe; blood glucose levels 2 hours after administration on day 2 vs diabetic animals treated with vehicle ([5]; diabetic rats, 250 mg/kg as metformin base): significantly lower blood glucose levels
2 | CC[C@H](C)[C@H](N)C(=O)O.CN(C)C(=N)NC(=N)N [Metformin isoleucinate, metformin isoleucinate] | – | 87.75 ± 12.97 | 76.75 ± 11.44 | 70.75 ± 17.04 | 148.77 | 21430 | 12.53 ± 1.91 | 14.47 ± 2.58 | 10.05 ± 2.33 | 21.43 ± 3.35 | 4.94 ± 0.80 | 0.24 ± 0.08 | 197.30 ± 10.62 | 189.10 ± 7.62 | 190.40 ± 7.71 | 203.33 ± 5.11 | 196.80 ± 11.54 | 224.63 ± 9.17 | 211.30 ± 7.51 | 115.33 ± 4.93 | blood glucose level vs vehicle, before the oral glucose overload (blood glucose level; 750 mg/kg (referred to metformin base) once a day for five days, Dunn's test): statistically significant decrease; blood glucose level vs vehicle, after the oral glucose overload (blood glucose level; Dunn's test): statistically significant decreases; blood glucose level vs vehicle, after the oral glucose overload (blood glucose level; Dunn's test, listed as metformin isoleucinate): statistically significant decrease; Blood glucose level, 1 h post-glucose overload (blood glucose level): 89.75 ± 19.77 mg/dL; Blood glucose level, 4 h post-glucose overload (blood glucose level): 80.50 ± 7.51 mg/dL; Physical form (hygroscopicity) ([1]; listed as 12. ISOLEUCIN): Hygroscopic solid; Physical form (hygroscopicity) ([1]; listed as isoleucine): hygroscopic; Absolute body weight, Day −2 (distribution of groups) [4]: 225.17 ± 10.85 g
3 | dimetformin aspartate | 96.00 ± 17.15 | 98.50 ± 13.70 | 95.25 ± 8.77 | 89.75 ± 5.50 | 122.96 | 15500 | 12.43 ± 2.05 | 15.50 ± 4.49 | 13.47 ± 3.13 | 6.05 ± 0.98 | 6.50 ± 1.57 | 0.22 ± 0.11 | 188.42 ± 5.42 | 186.02 ± 5.04 | 192.05 ± 6.89 | 207.73 ± 9.57 | 197.30 ± 10.15 | 228.17 ± 10.17 | 205.23 ± 6.83 | 120.00 ± 2.65 | Blood glucose level, 1 h post-glucose overload (blood glucose level): 103.75 ± 9.29 mg/dL; Blood glucose level, 3 h post-glucose overload (blood glucose level): 92.00 ± 6.16 mg/dL; Blood glucose level, 4 h post-glucose overload (blood glucose level): 92.75 ± 4.11 mg/dL; Blood glucose level, pre-glucose overload (blood glucose level): 83.25 ± 14.89 mg/dL; Absolute body weight, Day −2 (distribution of groups) [4]: 219.53 ± 13.36 g; Blood glucose levels before TI/RI administration, Day −1 [5]: 572.00^§ ± n.d.^§ mg/dL
4 | diphenformin aspartate | – | – | – | – | – | – | – | – | – | – | – | – | – | – | – | – | – | – | – | 115.33 ± 10.02 | –
5 | metformin leucinate | 87.75 ± 31.40 | 90.75 ± 28.16 | 99.00 ± 2.45 | 85.25 ± 2.22 | 133.32 | 15430 | 10.21 ± 1.77 | 15.43 ± 0.81 | 12.30 ± 2.41 | 12.57 ± 4.13 | 5.88 ± 0.80 | 0.21 ± 0.08 | 195.70 ± 9.85 | 187.38 ± 6.74 | 185.53 ± 12.04 | 199.25 ± 9.43 | 193.53 ± 11.92 | 234.57 ± 1.87 | 207.93 ± 0.99 | 118.33 ± 10.02 | Blood glucose level, 1 h post-glucose overload (blood glucose level): 99.50 ± 27.50 mg/dL; Blood glucose level, 3 h post-glucose overload (blood glucose level): 91.75 ± 6.99 mg/dL; Blood glucose level, 4 h post-glucose overload (blood glucose level): 89.75 ± 3.69 mg/dL; Blood glucose level, pre-glucose overload (blood glucose level): 72.25 ± 9.29 mg/dL; Physical form (hygroscopicity) [1]: Deliquescent; Absolute body weight, Day −2 (distribution of groups) [4]: 221.90 ± 6.16 g; Blood glucose levels before TI/RI administration, Day −1 [5]: 563.00 ± 36.39 mg/dL
6 | metformin threoninate | 110.33 ± 16.92 | 102.67 ± 8.02 | 93.67 ± 10.69 | 89.33 ± 3.06 | 107.62 | 14300 | 8.81 ± 2.00 | 14.30 ± 1.70 | 11.53 ± 2.61 | 11.43 ± 1.66 | 3.91 ± 0.33 | 0.23 ± 0.08 | 193.13 ± 9.66 | 186.22 ± 10.13 | 188.55 ± 6.35 | 202.15 ± 5.48 | 194.20 ± 4.58 | 231.13 ± 10.20 | 207.33 ± 8.52 | 117.33 ± 14.05 | Blood glucose level, 1 h post-glucose overload (blood glucose level): 101.67 ± 11.85 mg/dL; Blood glucose level, 3 h post-glucose overload (blood glucose level): 91.67 ± 6.03 mg/dL; Blood glucose level, 4 h post-glucose overload (blood glucose level): 87.67 ± 2.08 mg/dL; Blood glucose level, pre-glucose overload (blood glucose level): 90.33 ± 12.34 mg/dL; mortality and clinical signs ([3]; glucokinetic groups, 750 mg/kg for five days): died during the study just after the fifth test item administration; Absolute body weight, Day −2 (distribution of groups) [4]: 216.43 ± 8.74 g
